Six compounds from the supplement of paper PMC11061612 can be followed below.

One assay has as its system A204 (Rhabdomyosarcoma). The assay is described as follows: Bliss excess, mean over the matrix (fraction); higher = more synergy. The method in brief:
(§1)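 After 24 hours at 37°C and 5% CO2 in 1536-well plates, cells in DMEM/F12 or RPMI plus 10% FBS received two-drug dose matrices for 72 hours. Viability came from CellTiter-Glo 2.0 luminescence and was scaled as inhibition, anchored at 0 by vehicle wells and at 1 by blank wells. Combination Emax is taken as the second-highest inhibition in the matrix, and Bliss excess as the observed combination effect less EA + EB − EA·EB, with EA and EB the single-agent effects.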

Assay [1] has as its system AU565 (Breast Carcinoma). Described as above. The method in brief: as §1
Assay [2] relates to CA46 (Burkitt's Lymphoma). Described as above. The method in brief: as §1
In another assay the test system is COLO-792 (Melanoma). Described as above. The method in brief:
as §1

For assay [3], the system named is ESO26 (Esophageal Adenocarcinoma). The description is as above. The method in brief: as §1
A further assay relates to EW-7 (Ewing's Sarcoma). The assay is described as above. The method in brief:
as §1

Assay [4] deals with JHU-022 (Oral Cavity Carcinoma). Described as above. The method in brief: as §1
The test system of assay [5] is LS-411N (Colorectal Carcinoma). The assay is described as above. The method in brief: as §1
Assay [6] has as its system MHH-ES-1 (Ewing's Sarcoma). The description is as above. The method in brief:
as §1

The subject of the next assay is NB13 (Neuroblastoma). The assay is described as above. The method in brief:
as §1

Assay [7] concerns NCI-H1703 (Squamous Cell Lung Carcinoma). The description is as above. The method in brief:
as §1

For assay [8], the system named is NCI-H441 (Lung Adenocarcinoma). The assay is described as above. The method in brief:
as §1

For assay [9], the system named is NCI-H716 (Colorectal Carcinoma). The assay is described as above. The method in brief: as §1
The next assay relates to PEO1 (Ovarian Carcinoma). The description is as above. The method in brief:
as §1

The subject of another assay is WM1552C (Melanoma). Described as above. The method in brief:
as §1

For assay [10], the system named is AU565 (Breast Carcinoma). The assay is described as follows: combination Emax (second highest fraction inhibited in the dose matrix, 72 h); higher = more inhibition; extreme values may be limits of the assay. The method in brief: as §1
Assay [11] concerns HCC1395 (Breast Carcinoma). The assay is described as above. The method in brief:
as §1

For assay [12], the system named is LU-165 (Small Cell Lung Carcinoma). Described as above. The method in brief: as §1
The test system of assay [13] is NCI-H1703 (Squamous Cell Lung Carcinoma). The assay is described as above. The method in brief: as §1
Assay [14] concerns NCI-H2087 (Lung Adenocarcinoma). The description is as above. The method in brief:
as §1
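Wherever Bliss excess, mean over the matrix is given: after 72 h of two-drug dosing.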

Regarding `Cn1cnc2c(F)c(Nc3ccc(Br)cc3Cl)c(C(=O)NOCCO)cc21` [Selumetinib] + CCN(CCO)CCCOc1ccc2c(Nc3cc(CC(=O)Nc4cccc(F)c4)[nH]n3)ncnc2c1 [AZD2811] (first compound max 10 µM, 7x7, partner max 1 µM), the Bliss excess is -0.0772 in the assay with A204 (Rhabdomyosarcoma); -0.0167 in the assay with AU565 (Breast Carcinoma) [1]; -0.0093 in assay [2]; -0.0532 in the assay with COLO-792 (Melanoma); -0.0374 in assay [3]; -0.0023 in the assay on EW-7 (Ewing's Sarcoma). The Bliss excess in [4] is 0.0079; in assay [5], -0.0115; in [6], -0.0268; in the assay with NB13 (Neuroblastoma), -0.0829; in [7] it was -0.0167; in [8] it was -0.0565. Also, the values for the Bliss excess (in assay [9]; with PEO1 (Ovarian Carcinoma); in the assay on WM1552C (Melanoma)) were 0.044, -0.0252 and -0.0694, respectively. Also, the “combination Emax” value in the assay on AU565 (Breast Carcinoma) [10] stood at 0.2; in [11], 0.212; in assay [12], 0.158; in assay [13], 0.472; in [14] it was 0.445.

On to `Cn1cnc2c(F)c(Nc3ccc(Br)cc3Cl)c(C(=O)NOCCO)cc21` [Selumetinib] + C[C@@H]1COCCN1C2=NC(=NC(=C2)C3(CC3)[S@](=N)(=O)C)C4=C5C=CNC5=NC=C4 [AZD6738] (first compound max 10 µM, 7x7, partner max 10 µM), for which the Bliss excess in the assay with A204 (Rhabdomyosarcoma) is -0.0363; in the assay on AU565 (Breast Carcinoma) [1], -0.0014; in assay [2] it was -0.0159; in the assay with COLO-792 (Melanoma) it was 0.0362; in assay [3] it was -0.0189; with EW-7 (Ewing's Sarcoma) it was 0.0112. The Bliss excess in assay [4] is -0.0175; in assay [5] it was -0.0195; in assay [6], -0.046; in the assay with NB13 (Neuroblastoma), -0.0446; in assay [7], -0.0318; in [8], 0.0498. The Bliss excess in assay [9] was -0.0341; in the assay with PEO1 (Ovarian Carcinoma), -0.0357; with WM1552C (Melanoma), -0.0591. For the same compound, the “combination Emax” value was 0.315 in the assay with AU565 (Breast Carcinoma) [10]; 0.571 in assay [11]; 0.304 in assay [12]; 0.881 in assay [13]; 0.661 in assay [14].

For the compound `CC(=O)Nc1cccc(-n2c(=O)n(C3CC3)c(=O)c3c(Nc4ccc(I)cc4F)n(C)c(=O)c(C)c32)c1` [Trametinib] + Cc1nc(-c2cn3c(n2)-c2ccc(-c4cnn(C(C)(C)C(N)=O)c4)cc2OCC3)n(C(C)C)n1 [Taselisib] (first compound max 1 µM, 7x7, partner max 10 µM), the Bliss excess came to 0.149 in the assay on A204 (Rhabdomyosarcoma); 0.102 with AU565 (Breast Carcinoma) [1]; 0.0404 in assay [2]; 0.113 in the assay with COLO-792 (Melanoma); 0.147 in [3]; 0.0479 with EW-7 (Ewing's Sarcoma). In addition, the Bliss excess was determined as 0.0194 in assay [4]; 0.125 in assay [5]; 0.0141 in assay [6]; 0.0088 in the assay with NB13 (Neuroblastoma); 0.0652 in assay [7]; 0.102 in assay [8]. The figures for the Bliss excess (in [9]; in the assay with PEO1 (Ovarian Carcinoma); in the assay on WM1552C (Melanoma)) were 0.325, 0.204 and 0.0903, respectively. The “combination Emax” value worked out at 0.604 with AU565 (Breast Carcinoma) [10]; 0.654 in assay [11]; 0.373 in [12]; 0.759 in assay [13]; 0.639 in assay [14].

On to `CC1(C)CCC(CN2CCN(c3ccc(C(=O)NS(=O)(=O)c4ccc(NCC5CCOCC5)c([N+](=O)[O-])c4)c(Oc4cnc5[nH]ccc5c4)c3)CC2)=C(c2ccc(Cl)cc2)C1` [Venetoclax] + C1CN(CCC1(C(=O)N[C@@H](CCO)C2=CC=C(C=C2)Cl)N)C3=NC=NC4=C3C=CN4 [Capivasertib] (first compound max 1 µM, 7x7, partner max 3 µM), for which the Bliss excess in the assay on A204 (Rhabdomyosarcoma) was -0.0358; in the assay on AU565 (Breast Carcinoma) [1], 0.0463; in assay [2], -0.0473; in the assay with COLO-792 (Melanoma), -0.0203; in [3] it was -0.0751; with EW-7 (Ewing's Sarcoma), -0.0149. The Bliss excess in [4] is -0.0729; in assay [5] it was -0.0139; in assay [6] it was -0.01; in the assay with NB13 (Neuroblastoma) it was -0.0288; in [7], 0.0192; in assay [8], -0.0707. For the same compound, the Bliss excess in assay [9] was -0.0595; in the assay on PEO1 (Ovarian Carcinoma), -0.0564; in the assay with WM1552C (Melanoma), -0.0834. Further, the “combination Emax” value in the assay with AU565 (Breast Carcinoma) [10] amounted to 0.46; in assay [11] it was 0.662; in [12], 0.269; in assay [13], 0.384; in assay [14], 0.123.

As for `CC1(C)CCC(CN2CCN(c3ccc(C(=O)NS(=O)(=O)c4ccc(NCC5CCOCC5)c([N+](=O)[O-])c4)c(Oc4cnc5[nH]ccc5c4)c3)CC2)=C(c2ccc(Cl)cc2)C1` [Venetoclax] + C=CCn1c(=O)c2cnc(Nc3ccc(N4CCN(C)CC4)cc3)nc2n1-c1cccc(C(C)(C)O)n1 [AZD1775] (first compound max 1 µM, partner max 1 µM), the Bliss excess was -0.0433 in the assay with A204 (Rhabdomyosarcoma); 0.0756 in the assay on AU565 (Breast Carcinoma) [1]; -0.0322 in assay [2]; 0.021 in the assay with COLO-792 (Melanoma); -0.0373 in assay [3]; 0.0406 in the assay with EW-7 (Ewing's Sarcoma). The Bliss excess is -0.0218 in assay [4]; -0.0856 in assay [5]; -0.001 in assay [6]; 0.078 in the assay with NB13 (Neuroblastoma); 0.009 in assay [7]; 0.002 in [8]. Besides, the Bliss excess is 0.0214 in [9], -0.0325 in the assay with PEO1 (Ovarian Carcinoma) and 0.0354 in the assay on WM1552C (Melanoma). Also, the “combination Emax” value in the assay on AU565 (Breast Carcinoma) [10] stood at 0.672; in assay [11], 0.81; in assay [12] it was 0.364; in assay [13] it was 0.977; in [14] it was 0.401.

As for `CC1(C)CCC(CN2CCN(c3ccc(C(=O)NS(=O)(=O)c4ccc(NCC5CCOCC5)c([N+](=O)[O-])c4)c(Oc4cnc5[nH]ccc5c4)c3)CC2)=C(c2ccc(Cl)cc2)C1` [Venetoclax] + CCN(CCO)CCCOc1ccc2c(Nc3cc(CC(=O)Nc4cccc(F)c4)[nH]n3)ncnc2c1 [AZD2811] (first compound max 1 µM, 7x7, partner max 1 µM), the Bliss excess with A204 (Rhabdomyosarcoma) is 0.0005; with AU565 (Breast Carcinoma) [1], 0.0097; in assay [2], -0.0283; in the assay on COLO-792 (Melanoma) it was -0.0048; in [3], -0.0262; in the assay with EW-7 (Ewing's Sarcoma), -0.0227. Besides, the Bliss excess was -0.0139 in assay [4]; -0.0284 in [5]; 0.0824 in assay [6]; 0.0534 with NB13 (Neuroblastoma); 0.0412 in assay [7]; -0.044 in assay [8]. For the same compound, the Bliss excess in assay [9] was -0.0813; in the assay on PEO1 (Ovarian Carcinoma), -0.0314; in the assay with WM1552C (Melanoma), -0.0804. Further, the “combination Emax” value in the assay with AU565 (Breast Carcinoma) [10] stood at 0.181; in [11], 0.639; in assay [12], 0.161; in [13], 0.523; in assay [14] it was 0.176.
